This note sets out measurements from patent US20240083853A1, “HSD17B13 INHIBITORS AND USES THEREOF” (FL2022-001, Inc., priority 2020, published 2024).

The experiment deals with T1, Recombinant human HSD17B13 enzyme (Homo sapiens, UniProt Q7Z5P4).
T1 sequence (Q7Z5P4 20-300): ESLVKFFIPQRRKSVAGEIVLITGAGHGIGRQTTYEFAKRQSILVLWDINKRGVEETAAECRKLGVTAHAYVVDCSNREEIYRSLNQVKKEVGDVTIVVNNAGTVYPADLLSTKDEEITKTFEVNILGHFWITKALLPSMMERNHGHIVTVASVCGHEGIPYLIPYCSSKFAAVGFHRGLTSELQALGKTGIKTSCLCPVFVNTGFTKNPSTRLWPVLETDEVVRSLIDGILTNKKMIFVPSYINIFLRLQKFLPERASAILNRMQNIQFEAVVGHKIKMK
In words: HSD17b13 NAD(P)H-Glo biochemical assay. The conditions noted are these: for IC50: 50 uM estradiol, 1 mM NAD+, NAD(P)H-Glo luminescence, read-out: HSD17β13 IC50. Put shortly: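 Luminescent NAD(P)H-Glo read-out, taken after 1 hour at RT, measured cofactor reduction. Substrate and cofactor were estradiol at 50 uM and NAD+ at 1 mM final, reacted with the recombinant human enzyme for 3 hours at 37° C in 20 mM Tris pH7.4, 0.002% Tween-20, 0.02% BSA. Compound was pre-incubated with enzyme for 20 minutes at RT.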

As usually defined, the IC50 is the midpoint of a concentration-inhibition curve.

Counter-ions that a name gives are not always drawn.

As for `Oc1c(F)cc2cnn(-c3ccc(C4=CCCCC4)cc3)c2c1F` [Compound 27.1, 5,7-Difluoro-1-(2′,3′,4′,5′-tetrahydro-[1,1′-biphenyl]-4-yl)-1H-indazol-6-ol], the half-inhibitory concentration (IC50) is < 100 nM.

Turning to `CC1(C)CC=C(c2ccc(-n3ncc4cc(F)c(O)c(F)c43)cc2)CC1` [Compound 27.2, 1-(4′,4′-Dimethyl-2′,3′,4′,5′-tetrahydro-[1,1′-biphenyl]-4-yl)-5,7-difluoro-1H-indazol-6-ol], the concentration for half-maximal inhibition (IC50) is < 100 nM.

Regarding `Oc1c(F)cc2cnn(-c3ccc(C4=CCOCC4)cc3)c2c1F` [Compound 27.3, 1-(4-(3,6-Dihydro-2H-pyran-4-yl)phenyl)-5,7-difluoro-1H-indazol-6-ol], the IC50 was < 100 nM.

On to `CS(=O)(=O)N1CC=C(c2ccc(-n3ncc4cc(F)c(O)c(F)c43)cc2)CC1` [Compound 27.4, 5,7-Difluoro-1-(4-(1-(methylsulfonyl)-1,2,3,6-tetrahydropyridin-4-yl)phenyl)-1H-indazol-6-ol], for which the IC50 was < 100 nM.

For `Oc1c(F)cc2cnn(-c3ccc(C4CCCCC4)cc3)c2c1F` [Compound 27.5, 1-(4-Cyclohexylphenyl)-5,7-difluoro-1H-indazol-6-ol], the IC50 is < 100 nM.

`Oc1c(F)cc2cnn(-c3ccc(C4CCOCC4)cc3)c2c1F` [Compound 27.6, 5,7-Difluoro-1-(4-(tetrahydro-2H-pyran-4-yl)phenyl)-1H-indazol-6-ol]: the IC50 is < 100 nM.

With `CS(=O)(=O)N1CCC(c2ccc(-n3ncc4cc(F)c(O)c(F)c43)cc2)CC1` [Compound 27.7, 5,7-Difluoro-1-(4-(1-(methylsulfonyl)piperidin-4-yl)phenyl)-1H-indazol-6-ol], the IC50 is < 100 nM.

As to `CC(C)N1CCC(c2ccc(-n3ncc4cc(F)c(O)c(F)c43)cc2)CC1` [Compound 27.8, 5,7-Difluoro-1-(4-(1-isopropylpiperidin-4-yl)phenyl)-1H-indazol-6-ol], the IC50 was < 100 nM.

Consider `CS(=O)(=O)N1CCC(c2ccc(-n3nnc4cc(F)c(O)c(F)c43)cc2)CC1` [Compound 27.9, 5,7-Difluoro-1-(4-(1-(methylsulfonyl)piperidin-4-yl)phenyl)-1H-benzo[d][1,2,3]triazol-6-ol], for which the IC50 is < 100 nM.

Consider `CN1CCC(c2ccc(-n3ncc4cc(F)c(O)c(F)c43)cc2)CC1` [Compound 27.10, 5,7-Difluoro-1-(4-(1-methylpiperidin-4-yl)phenyl)-1H-indazol-6-ol], for which the IC50 was 100 to 1000 nM.

For `CS(=O)(=O)N1CCC(c2ccc(-n3cnc4cc(F)c(O)c(F)c43)cc2)CC1` [Compound 28, 5,7-Difluoro-1-(4-(1-(methylsulfonyl)piperidin-4-yl)phenyl)-1H-benzo[d]imidazol-6-ol], the IC50 is < 100 nM.

For the compound `CCN1CCC(c2ccc(-n3ncc4cc(F)c(O)c(F)c43)cc2)CC1` [Compound 29, 1-(4-(1-Ethylpiperidin-4-yl)phenyl)-5,7-difluoro-1H-indazol-6-ol TFA salt], the concentration for half-maximal inhibition (IC50) is < 100 nM.

`CS(=O)(=O)N1CC(c2ccc(-n3ncc4cc(F)c(O)c(F)c43)cc2)C1` [Compound 30, 5,7-Difluoro-1-(4-(1-(methylsulfonyl)azetidin-3-yl)phenyl)-1H-indazol-6-ol]: the half-maximal inhibitory concentration (IC50) is 100 to 1000 nM.

Regarding `CS(=O)(=O)N1CCCC(c2ccc(-n3ncc4cc(F)c(O)c(F)c43)cc2)C1` (centres unmarked) [Compound 30.1, 5,7-Difluoro-1-(4-(1-(methylsulfonyl)piperidin-3-yl)phenyl)-1H-indazol-6-ol], the 50% inhibitory concentration (IC50) is < 100 nM.

Regarding `CS(=O)(=O)N1CCC(Oc2ccc(-n3ncc4cc(F)c(O)c(F)c43)cc2)CC1` [Compound 31, 5,7-Difluoro-1-(4-((1-(methylsulfonyl)piperidin-4-yl)oxy)phenyl)-1H-indazol-6-ol], the IC50 was in the range of 100 to 1000 nM.

In the case of `CC1CN(c2ccc(-n3ncc4cc(F)c(O)c(F)c43)cc2)CC(C)S1(=O)=O` (centres unmarked) [Compound 32, 4-(4-(5,7-Difluoro-6-hydroxy-1H-indazol-1-yl)phenyl)-2,6-dimethylthiomorpholine 1,1-dioxide], the IC50 was 100 to 1000 nM.

Take `[O-][S+]1CCC2(CC1)CN(c1ccc(-n3ncc4cc(F)c(O)c(F)c43)cc1)C2` [Compound 32.1, 2-(4-(5,7-Difluoro-6-hydroxy-1H-indazol-1-yl)phenyl)-7-thia-2-azaspiro[3.5]nonane 7-oxide]: the IC50 fell in the range of 100 to 1000 nM.

With `[O-][S+]1CC2(CN(c3ccc(-n4ncc5cc(F)c(O)c(F)c54)cc3)C2)C1` [Compound 32.2, 6-(4-(5,7-Difluoro-6-hydroxy-1H-indazol-1-yl)phenyl)-2-thia-6-azaspiro[3.3]heptane 2-oxide], the half-inhibitory concentration (IC50) was 100 to 1000 nM.

Consider `CC1CN(c2ccc(-n3ncc4cc(F)c(O)c(F)c43)cc2)CC(C)[S+]1[O-]` (centres unmarked) [Compound 32.3, 4-(4-(5,7-Difluoro-6-hydroxy-1H-indazol-1-yl)phenyl)-2,6-dimethylthiomorpholine 1-oxide], for which the IC50 is 100 to 1000 nM.

Turning to `C[C@@H]1CN(c2ccc(-n3ncc4cc(F)c(O)c(F)c43)cc2)C[C@H](C)S1` [Compound 32.4, 1-(4-(cis-2,6-Dimethylthiomorpholino)phenyl)-5,7-difluoro-1H-indazol-6-ol], the half-inhibitory concentration (IC50) was < 100 nM.

As for `CC1(C)CCN(c2ccc(N3C(=O)Cc4cc(F)c(O)c(F)c43)cc2)CC1` [Compound 33, 1-(4-(4,4-Dimethylpiperidin-1-yl)phenyl)-5,7-difluoro-6-hydroxyindolin-2-one], the half-maximal inhibitory concentration (IC50) lay within 100 to 1000 nM.

For the compound `CC1(C)CCN(c2ccc(N3C(=O)C(C)(C)c4cc(F)c(O)c(F)c43)cc2)CC1` [Compound 34, 1-(4-(4,4-Dimethylpiperidin-1-yl)phenyl)-5,7-difluoro-6-hydroxy-3,3-dimethylindolin-2-one], the IC50 was 1000 to 30000 nM.

Take `CC1(C)CCN(c2ccc(N3C(=O)C(O)c4cc(F)c(O)c(F)c43)cc2)CC1` (centres unmarked) [Compound 35, 1-(4-(4,4-Dimethylpiperidin-1-yl)phenyl)-5,7-difluoro-3,6-dihydroxyindolin-2-one hydrochloride]: under “3 h, read-out: HSD17β13 % at 10 uM”, the inhibition at 10 µM was < 20%.

On to `CC1(C)CCN(c2ccc(-n3[nH]c(=O)c4cc(F)c(O)c(F)c43)cc2)CC1` [Compound 36, 1-(4-(4,4-Dimethylpiperidin-1-yl)phenyl)-5,7-difluoro-6-hydroxy-1H-indazol-3(2H)-one], for which the IC50 lay in the range of 100 to 1000 nM.

`Cn1c(=O)c2cc(F)c(O)c(F)c2n1-c1ccc(N2CCC(C)(C)CC2)cc1` [Compound 37, 1-(4-(4,4-Dimethylpiperidin-1-yl)phenyl)-5,7-difluoro-6-hydroxy-2-methyl-1H-indazol-3(2H)-one]: the IC50 lay within 100 to 1000 nM.

Consider `COc1nn(-c2ccc(N3CCC(C)(C)CC3)cc2)c2c(F)c(O)c(F)cc12` [Compound 37.1, 1-(4-(4,4-Dimethylpiperidin-1-yl)phenyl)-5,7-difluoro-3-methoxy-1H-indazol-6-ol], for which the half-inhibitory concentration (IC50) lay in the range of 100 to 1000 nM.

With `CC1(C)CCN(c2ccc(-n3c(=O)oc4c(Br)c(F)c(O)c(F)c43)cc2)CC1` [Compound 38, 7-Bromo-3-(4-(4,4-dimethylpiperidin-1-yl)phenyl)-4,6-difluoro-5-hydroxybenzo[d]oxazol-2(3H)-one], the concentration for half-maximal inhibition (IC50) is < 100 nM.

Consider `CC1(C)CCN(c2ccc(-n3c(=O)oc4cc(F)c(O)c(F)c43)cc2)CC1` [Compound 39, 3-(4-(4,4-Dimethylpiperidin-1-yl)phenyl)-4,6-difluoro-5-hydroxybenzo[d]oxazol-2(3H)-one], for which the IC50 is < 100 nM.

Regarding `Oc1cc2c(nnn2-c2ccc(N3CC4(CCOCC4)C3)cc2)c(Cl)c1F` [Compound 40, 1-(4-(7-Oxa-2-azaspiro[3.5]nonan-2-yl)phenyl)-4-chloro-5-fluoro-1H-benzo[d][1,2,3]triazol-6-ol], the IC50 was < 100 nM.

For the compound `CC1(C)CCN(c2ccc(-n3nnc4c(Cl)c(F)c(O)cc43)cc2)CC1` [Compound 40.1, 4-Chloro-1-(4-(4,4-dimethylpiperidin-1-yl)phenyl)-5-fluoro-1H-benzo[d][1,2,3]triazol-6-ol], the IC50 is < 100 nM.

As to `CC1(C)CCN(c2ccc(-n3nnc4c(F)c(F)c(O)cc43)cc2)CC1` [Compound 40.2, 1-(4-(4,4-Dimethylpiperidin-1-yl)phenyl)-4,5-difluoro-1H-benzo[d][1,2,3]triazol-6-ol], the IC50 is 100 to 1000 nM.

`Oc1cc2c(nnn2-c2ccc(N3CC4(CCOCC4)C3)cc2)c(F)c1F` [Compound 40.3, 1-(4-(7-oxa-2-azaspiro[3.5]nonan-2-yl)phenyl)-4,5-difluoro-1H-benzo[d][1,2,3]triazol-6-ol]: the IC50 lay in the range of 100 to 1000 nM.

In the case of `Oc1cc2c(nnn2-c2ccc(N3CC4(CCOCC4)C3)cc2)c(C(F)(F)F)c1F` [Compound 41, 1-(4-(7-Oxa-2-azaspiro[3.5]nonan-2-yl)phenyl)-5-fluoro-4-(trifluoromethyl)-1H-benzo[d][1,2,3]triazol-6-ol], the IC50 was 100 to 1000 nM.

As for `CC1(C)CCN(c2ccc(-n3nnc4c(C(F)(F)F)c(F)c(O)cc43)cc2)CC1` [Compound 41.1, 1-(4-(4,4-Dimethylpiperidin-1-yl)phenyl)-5-fluoro-4-(trifluoromethyl)-1H-benzo[d][1,2,3]triazol-6-ol], the IC50 was in the range of 100 to 1000 nM.

As to `CC1(C)CCN(c2ncc(-n3nnc4cc(F)c(O)c(F)c43)cn2)CC1` [Compound 42, 1-(2-(4,4-Dimethylpiperidin-1-yl)pyrimidin-5-yl)-5,7-difluoro-1H-benzo[d][1,2,3]triazol-6-ol], the concentration for half-maximal inhibition (IC50) was < 100 nM.
